# From US11998008B2, “Pesticides and methods of controlling pests” (The State of Israel, Ministry of Agriculture & Rural …, priority 2017, dated 2024)
# Assays:
# P. digitatum = assay: Fungicidal activity assay on PDA in sealed Petri dish (growth inhibition and mortality); format: cell-based, Penicillium digitatum; settings: Penicillium digitatum, NA + number = still viable in the highest concentration tested (given as >), read-out: M - Mortality, minimal concentration that killed the fungus
# Method: In exemplary procedures, the fungicidial activity of the compounds listed in Table 2 were examined by activity assays as follow: Petri dishes, 90 mm in diameter, with air volume of 80 mL, contained 10-12 mL of growth medium comprising potato dextrose agar (PDA) (Acumedia, Lansing, Michigan, USA) amended with tetracycline at 12 μg/mL. Each compound was placed on a disconnected cover from an Eppendorf tube that was located in the middle of the Petri dish and a hyphae-containing plug of each test fungus was added to the culture plate. In exemplary procedures, the tested compounds trans-2-heptenal, trans-2-octenal were tested in comparison with octanal, trans-2-octen-1-ol, methyl trans-2-octenoate, trans-3-octen-2-one and 3-pentenenitrile. In addition, cyclic ketones as 2-cyclopenten-1-one, 2-cyclohexen-1-one and α-tetralone were also examined. Then, the culture plate was sealed with parafilm and incubated at room-temperature for 2 days, after which the growth of the test fungi in those dishes was compared with those in the test compound-free control dishes. At the end of the assay, the viability of each test fungus was evaluated by transferring inoculum plugs to fresh PDA plates and observing the growth that developed within the next 2 days. The test fungi used in this study included but were not limited to Alternaria alternata, Botrytis cinerea, Sclerotinia rolfsii, Penicillium digitatum, Fusarium oxysporum f. sp. radicis-cucumerinum and Rhizoctonia solani.
# R. solani = assay: microbe, parasite or virus in culture; format: cell-based; settings: Rhizoctonia solani; R. solani; NA + number = still viable in the highest concentration tested (given as >); read-out: M - Mortality, minimal concentration that killed the fungus
# [1] = system: Fusarium oxysporum f sp. radicis-cucumerinum (FORC); assay: Effect on FORC in loam soil in buckets; format: in vivo
# Method: The activity of trans-2-octenal was examined against phytopathogenic fungi and weeds. The experiment was performed in large buckets (110 L), which bottoms were removed, and therefore the loam in the bucket was continuous with the ground. The soil was inoculated one day prior the application of the compound. Soil inoculation was performed as follows: spores of Fusarium oxysporum f sp. radicis-cucumerinum (FORC) were collected from culture plates and 25 mL of spore suspension at concentration of 9×10^5 was mixed with 10 L of tap water and then poured on the soil of each bucket. […] Half of the buckets were sealed with nylon while the other half remained open. Five days later, soil samples from three different depths (10, 20, and 30 cm) were taken from each bucket for fungal isolation and determination of fungal survival. […] After 3 days, the number of colonies was counted. […] Similar results were obtained at close condition, except at depth 30 cm at concentration of 62.5 ppm.
# chlamydospores of Forl = assay: Open field experiment in sandy soil; format: in vivo, Fusarium oxysporum f sp. radicis-lycopersici; settings: emulsion, 54 ppm active compound, 6 days
# Method: In this experiment, an emulsions of trans-2-octenal (25% active compound) such as those described in Example 9 were used. The soil was inoculated with chlamydospores of Forl and sclerotia of S. rolfsii. Five gram of soil, highly inoculated with chlamydospores were wrapped in nylon tights and buried in the field at depths of 10, 30, and 50 cm. Tea bags containing 50 S. rolfsii sclerotia were prepared as described above and buried similarly. After 6 days, trans-2-octenal emulsion, at concentration of 54 ppm (active compound) was applied using the irrigation system. The same conditions were applied to a control plot except that the plot was irrigated with tap water without the compound. The plots were left open during the time of the experiment. After 6 days, the pathogens were removed from the soil and their viability was examined using PDA+tet culture plates. […] As shown in these figures, elimination of both phytopathogenic fungi occurred at the lowest depth of 10 cm.
# [2] = system: seeds of corn, cotton, and peanut; assay: Phytotoxicity: seed germination in treated sandy soil in pots; format: in vivo; settings: soil treated with 54 ppm, nine days
# Method: Sandy soil from a plot that was treated with 54 ppm of trans-2-octenal was removed to small pots in which either seeds of corn, cotton, and peanut were sown (FIGS. 16A-16C) or tomato seedlings were planted therein (FIG. 16E).
# [3] = system: lettuce seedling strain Raviv; settings: in vivo, 11 days
# Method: An experiment in a larger scale was performed in loam soil in which the seedling were planted directly in the treated plot. The soil was treated with 0, 25, 50, 100, 200, 400, 800, and 1,600 ppm of emulsion of trans-2-octenal. The compound was applied using the irrigation system. A day later, tomato seedling strains Ikram and Abigail and lettuce seedling strain Raviv (10 seedlings each) were planted into the treated soil of each concentration. Eleven days later, the number of viable seedlings was counted.
smiles,measurement,setting,value
CCCCC/C=C/C=O [trans-2-octenal],MFC,P. digitatum,12.5 µg/mL
same,MFC,R. solani,6.25 µg/mL
same,concentration sufficient to eliminate FORC,"[1]; close condition, except at depth 30 cm",62.5 ppm
same,concentration sufficient to eliminate FORC,"[1]; open conditions, all depths examined (10, 20, 30 cm), 5 days",62.5 ppm
same,viability of Forl chlamydospores,chlamydospores of Forl; 30 and 50 cm depth,No elimination
same,viability of Forl chlamydospores,"chlamydospores of Forl; depth 10 cm, open plot",elimination
same,number of seeds germinated in treated versus untreated soil,[2],did not differ significantly
same,concentration at which significant phytotoxic effect occurred,[3],400 ppm
